target: Non-receptor tyrosine-protein kinase TYK2 (Homo sapiens, UniProt P29597); assay: Binding Assay: Binding constants for compounds of the present invention against the JH2 domain were determined by the following protocol for a KINOMEscan® assay (DiscoveRx). A fusion protein of a partial length construct of human TYK2 (JH2domain-pseudokinase) (amino acids G556 to D888 based on reference sequence NP_003322.3) and the DNA binding domain of NFkB was expressed in transiently transfected HEK293 cells. From these HEK 293 cells, extracts were prepared in M-PER extraction buffer (Pierce) in the presence of Protease Inhibitor Cocktail Complete (Roche) and Phosphatase Inhibitor Cocktail Set II (Merck) per manufacturers' instructions. The TYK2 (JH2domain-pseudokinase) fusion protein was labeled with a chimeric double-stranded DNA tag containing the NFkB binding site (5′-GGGAATTCCC-3′) fused to an amplicon for qPCR readout, which was added directly to the expression extract (the final concentration of DNA-tag in the binding reaction is 0.1 nM).; format: cell-based
Sequence (P29597 whole entry, the tested form may be a part): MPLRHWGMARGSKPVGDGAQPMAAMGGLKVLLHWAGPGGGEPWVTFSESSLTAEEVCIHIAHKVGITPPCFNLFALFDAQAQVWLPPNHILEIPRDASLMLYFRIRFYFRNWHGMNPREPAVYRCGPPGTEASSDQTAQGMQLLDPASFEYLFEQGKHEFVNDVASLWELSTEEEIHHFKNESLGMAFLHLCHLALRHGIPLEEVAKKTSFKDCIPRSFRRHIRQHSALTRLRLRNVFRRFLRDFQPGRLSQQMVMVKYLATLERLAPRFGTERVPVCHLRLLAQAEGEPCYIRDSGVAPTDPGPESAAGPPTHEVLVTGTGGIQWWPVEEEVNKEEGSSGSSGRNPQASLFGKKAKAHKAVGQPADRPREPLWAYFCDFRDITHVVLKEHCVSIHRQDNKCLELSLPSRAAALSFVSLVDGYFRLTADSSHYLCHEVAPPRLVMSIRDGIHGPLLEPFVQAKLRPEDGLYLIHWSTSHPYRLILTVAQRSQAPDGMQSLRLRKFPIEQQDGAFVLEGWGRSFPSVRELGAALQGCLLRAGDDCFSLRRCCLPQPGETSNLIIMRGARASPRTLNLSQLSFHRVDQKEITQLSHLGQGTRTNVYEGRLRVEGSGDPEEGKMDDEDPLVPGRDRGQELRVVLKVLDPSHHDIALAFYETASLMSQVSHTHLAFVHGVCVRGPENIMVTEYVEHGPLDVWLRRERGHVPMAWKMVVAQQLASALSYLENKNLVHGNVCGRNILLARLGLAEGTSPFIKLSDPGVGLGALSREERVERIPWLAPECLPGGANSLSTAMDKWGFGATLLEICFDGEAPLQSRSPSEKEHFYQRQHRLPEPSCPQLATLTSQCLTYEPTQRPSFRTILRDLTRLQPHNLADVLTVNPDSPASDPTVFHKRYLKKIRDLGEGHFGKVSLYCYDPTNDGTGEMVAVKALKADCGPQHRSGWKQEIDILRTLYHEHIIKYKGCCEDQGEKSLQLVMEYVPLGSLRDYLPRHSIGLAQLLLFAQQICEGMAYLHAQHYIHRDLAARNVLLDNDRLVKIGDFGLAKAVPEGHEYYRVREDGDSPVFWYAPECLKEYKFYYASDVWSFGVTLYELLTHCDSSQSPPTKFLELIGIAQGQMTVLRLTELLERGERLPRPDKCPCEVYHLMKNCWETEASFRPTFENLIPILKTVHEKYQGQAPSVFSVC

Row | Structure (SMILES) | Kd [nM]
1 | COc1c(Nc2cc(Nc3ccc(C(C)(C)OC)c(C#N)n3)nc3[nH]c(C)nc23)cccc1-c1nnn(C)n1 | > 10
2 | COCCNc1ccc(Nc2cc(Nc3ccccc3N(C)S(C)(=O)=O)c3nc(C)[nH]c3n2)nc1C#N | < 0.1
3 | Cc1nc2c(Nc3ccc(-c4cnn(C)c4C)cc3S(C)(=O)=O)cc(Nc3cccc(C#N)n3)nc2[nH]1 | < 0.1
4 | Cn1cncc1-c1ccc(Nc2cc(NC(=O)[C@@H]3C[C@@H]3F)nc3[nH]c(C(F)F)nc23)c(S(C)(=O)=O)c1 | < 0.1
5 | CN(c1cc(-c2cncn2C)ccc1Nc1cc(NC(=O)[C@@H]2C[C@@H]2F)nc2[nH]c(C(F)F)nc12)S(C)(=O)=O | < 0.1
6 | COc1ccccc1Nc1cc(Nc2ccc(N3CCC4(CCOCC4)CC3)cn2)nc2[nH]c(C)nc12 | > 10
7 | Cc1c(-c2ccc(Nc3cc(NC(=O)C4CC4)nc4[nH]c(C(F)F)nc34)c(S(C)(=O)=O)c2)cnn1C | < 0.1
